Marks after values point to notes of the source that are not given here.
Experiments:
[1] = Fluorescence maximum of the dye; assay type: physicochemical
From the text: (§1) Examples of the compounds according to the invention are listed in Tables 2-6, where the structures as well as the absorption and fluorescence maxima are indicated. The spectra of selected compounds are shown FIGS. 5-18.

[2] = Absorption maximum of the dye; assay type: physicochemical
From the text: as §1

| SMILES | λfl ([1]; solvent PBS pH 7.4) | λabs ([2]; solvent water/acetonitrile 1:1) | λabs ([2]; solvent PBS pH 7.4) | λfl ([1]; solvent ethanol) | λabs ([2]; solvent ethanol) |
| --- | --- | --- | --- | --- | --- |
| O=C(O)c1ccccc1-c1c2cc/c(=N/CS(=O)(=O)O)c(S(=O)(=O)O)c-2oc2c(S(=O)(=O)O)c(NCS(=O)(=O)O)ccc12 [Compound 1] | 554^b nm | 533^c nm | – | – | – |
| CCN(Cc1ccccc1S(=O)(=O)O)c1ccc2c(-c3ccccc3C(=O)O)c3cc/c(=[N+](\CC)Cc4ccccc4S(=O)(=O)O)cc-3oc2c1 [Compound 2] | 584^b nm | 554^c nm | – | – | – |
| O=C(O)c1ccccc1-c1c2cc/c(=N/Cc3ccc(S(=O)(=O)O)cc3S(=O)(=O)O)cc-2oc2cc(NCc3ccc(S(=O)(=O)O)cc3S(=O)(=O)O)ccc12 [Compound 4] | 559^b nm | 536^c nm | – | – | – |
| CN(CCCC(=O)O)C(=O)c1ccccc1-c1c2ccc(=[N+](Cc3ccc(S(=O)(=O)O)cc3S(=O)(=O)O)Cc3ccc(S(=O)(=O)O)cc3S(=O)(=O)O)cc-2oc2cc(N(Cc3ccc(S(=O)(=O)O)cc3S(=O)(=O)O)Cc3ccc(S(=O)(=O)O)cc3S(=O)(=O)O)ccc12 [Compound 9] | 572^b nm | 550^c nm | – | – | – |
| O=C(O)c1ccccc1-c1c2cc/c(=N/CCc3ccc(S(=O)(=O)O)cc3)cc-2oc2cc(NCCc3ccc(S(=O)(=O)O)cc3)ccc12 [Compound 18] | 551^b nm | 530^c nm | – | – | – |
| CN(CCCC(=O)O)C(=O)c1ccccc1-c1c2cc/c(=N/CCc3ccc(S(=O)(=O)O)cc3)cc-2oc2cc(NCCc3ccc(S(=O)(=O)O)cc3)ccc12 [Compound 21] | 559^b nm | 538^c nm | – | – | – |
| CN(CCCC(=O)O)C(=O)c1ccccc1-c1c2cc(S(=O)(=O)O)/c(=N/CCc3ccc(S(=O)(=O)O)cc3)cc-2oc2cc(NCCc3ccc(S(=O)(=O)O)cc3)ccc12 [Compound 22] | 558^b nm | 536^c nm | – | – | – |
| O=C(O)c1ccccc1-c1c2cc/c(=N/CCc3ccc(S(=O)(=O)O)cc3S(=O)(=O)O)cc-2oc2cc(NCCc3ccc(S(=O)(=O)O)cc3S(=O)(=O)O)ccc12 [Compound 23] | 559^b nm | 532^c nm | – | – | – |
| O=C(O)CN(CCS(=O)(=O)O)C(=O)c1ccccc1-c1c2cc/c(=N/Cc3ccc(S(=O)(=O)O)cc3S(=O)(=O)O)c(S(=O)(=O)O)c-2oc2c(S(=O)(=O)O)c(NCc3ccc(S(=O)(=O)O)cc3S(=O)(=O)O)ccc12 [Compound 30] | – | 536^c nm | – | – | – |
| CN(CCCC(=O)O)C(=O)c1c(-c2c3cc/c(=N/Cc4ccc(S(=O)(=O)O)cc4S(=O)(=O)O)c(S(=O)(=O)O)c-3oc3c(S(=O)(=O)O)c(NCc4ccc(S(=O)(=O)O)cc4S(=O)(=O)O)ccc23)cc(S(=O)(=O)O)cc1S(=O)(=O)O [Compound 32] | – | 530^c nm | – | – | – |
| CN(CCCC(=O)O)C(=O)c1cc2ccccc2cc1-c1c2cc/c(=N/Cc3ccc(S(=O)(=O)O)cc3S(=O)(=O)O)c(S(=O)(=O)O)c-2oc2c(S(=O)(=O)O)c(NCc3ccc(S(=O)(=O)O)cc3S(=O)(=O)O)ccc12.CS(=O)(=O)O.CS(=O)(=O)O [Compound 33] | – | 539^c nm | – | – | – |
| CN(CCCC(=O)O)C(=O)c1ccccc1-c1c2cc/c(=N/Cc3cc(S(=O)(=O)O)c4cc(S(=O)(=O)O)cc(S(=O)(=O)O)c4c3)c(S(=O)(=O)O)c-2oc2c(S(=O)(=O)O)c(NCc3cc(S(=O)(=O)O)c4cc(S(=O)(=O)O)cc(S(=O)(=O)O)c4c3)ccc12 [Compound 34] | – | – | 530^b nm | – | – |
| CC1(C)c2c(cc3c4c2CCCN4CCC3)C(c2c(F)c(F)c(SCC(=O)O)c(F)c2F)=c2cc3c(cc21)=[N+](Cc1ccc(S(=O)(=O)O)cc1S(=O)(=O)O)CCC3 [Compound 36] | 677^b nm | – | 656^b nm | – | – |
| CN(C)c1ccc2c(c1)C(C)(C)C1=C/C(=[N+](/C)Cc3ccc(S(=O)(=O)O)cc3S(=O)(=O)O)C=CC1=C2c1c(F)c(F)c(F)c(F)c1F [Compound 37] | 661^b nm | – | 642^b nm | – | – |
| CN(C)c1ccc2c(c1)C(C)(C)c1cc3c(cc1=C2c1c(F)c(F)c(SCC(=O)O)c(F)c1F)CCC[N+]=3Cc1ccc(S(=O)(=O)O)cc1S(=O)(=O)O [Compound 38] | 667^b nm | – | 646^b nm | – | – |
| CN(C)c1ccc2c(c1)C(C)(C)c1cc3c(cc1=C2c1c(F)c(F)c(SCC(=O)O)c(F)c1F)C(CS(=O)(=O)O)CC(C)(C)[N+]=3Cc1ccc(S(=O)(=O)O)cc1S(=O)(=O)O (stereo not shown) [Compound 39] | 693^b nm | – | 673^b nm | – | – |
| CC1(C)c2cc3c(cc2C(c2c(F)c(F)c(SCC(=O)O)c(F)c2F)=c2cc4c(cc21)=[N+](Cc1ccc(S(=O)(=O)O)cc1S(=O)(=O)O)C(C)(C)CC4CS(=O)(=O)O)C(CS(=O)(=O)O)=CC(C)(C)N3Cc1ccc(S(=O)(=O)O)cc1S(=O)(=O)O (stereo not shown) [Compound 40] | 720^b nm | – | 699^b nm | – | – |
| CC[N+]1=c2cc3c(cc2C(CS(=O)(=O)O)=CC1(C)C)=C(c1c(F)c(F)c(SCCS(=O)(=O)O)c(F)c1F)c1cc2c(cc1C3(C)C)N(Cc1ccc(S(=O)(=O)O)cc1S(=O)(=O)O)CCC2 [Compound 42] | 701^b nm | – | 682^b nm | – | – |

More lines, now with the values ahead:

| λfl ([1]; solvent PBS pH 7.4) | λabs ([2]; solvent water/acetonitrile 1:1) | λabs ([2]; solvent PBS pH 7.4) | λfl ([1]; solvent ethanol) | λabs ([2]; solvent ethanol) | SMILES |
| --- | --- | --- | --- | --- | --- |
| 583^b nm | 550^c nm | – | – | – | CCN(Cc1ccc(S(=O)(=O)O)cc1S(=O)(=O)O)c1ccc2c(-c3ccccc3C(=O)O)c3cc/c(=[N+](\CC)Cc4ccc(S(=O)(=O)O)cc4S(=O)(=O)O)cc-3oc2c1 [Compound 3] |
| 584^b nm | 560^c nm | – | – | – | CCN(Cc1ccc(S(=O)(=O)O)cc1S(=O)(=O)O)c1ccc2c(-c3ccccc3C(=O)N(C)CCCC(=O)O)c3cc/c(=[N+](\CC)Cc4ccc(S(=O)(=O)O)cc4S(=O)(=O)O)cc-3oc2c1 [Compound 5] |
| 559^b nm | 534^c nm | – | – | – | CN(CCCC(=O)ON1C(=O)CCC1=O)C(=O)c1ccccc1-c1c2cc(S(=O)(=O)O)/c(=N/Cc3ccc(S(=O)(=O)O)cc3S(=O)(=O)O)cc-2oc2cc(NCc3ccc(S(=O)(=O)O)cc3S(=O)(=O)O)c(S(=O)(=O)O)cc12 [Compound 7] |
| 555^b nm | 534^c nm | – | – | – | CN(CCCC(=O)O)C(=O)c1ccccc1-c1c2cc/c(=N/Cc3ccc(S(=O)(=O)O)cc3S(=O)(=O)O)cc-2oc2cc(NCc3ccc(S(=O)(=O)O)cc3S(=O)(=O)O)ccc12 [Compound 13] |
| 561^b nm | 539^c nm | – | – | – | CN(CCCC(=O)O)C(=O)c1ccccc1-c1c2cc/c(=N/CCc3ccc(S(=O)(=O)O)cc3S(=O)(=O)O)cc-2oc2cc(NCCc3ccc(S(=O)(=O)O)cc3S(=O)(=O)O)ccc12 [Compound 24] |
| – | 567^c nm | – | – | – | CN(CCCC(=O)O)C(=O)c1ccccc1C1=c2cc3c(cc2Oc2cc4c(cc21)CCCN4Cc1ccc(S(=O)(=O)O)cc1S(=O)(=O)O)=[N+](Cc1ccc(S(=O)(=O)O)cc1S(=O)(=O)O)CCC3 [Compound 28] |
| – | 531^c nm | – | – | – | CN(CCCC(=O)O)C(=O)c1ccccc1-c1c2cc/c(=N/Cc3ccc(S(=O)(=O)O)cc3S(=O)(=O)O)c(S(=O)(=O)O)c-2oc2c(S(=O)(=O)O)c(NCc3ccc(S(=O)(=O)O)cc3S(=O)(=O)O)ccc12 [Compound 29] |
| – | 532^c nm | – | – | – | CN(CCCC(=O)O)C(=O)c1ccccc1-c1c2cc/c(=N/Cc3ccc(S(=O)(=O)O)cc3S(=O)(=O)O)c(S(=O)(=O)O)c-2oc2c(S(=O)(=O)O)c(NCc3ccc(S(=O)(=O)O)cc3S(=O)(=O)O)ccc12.CS(=O)(=O)O [Compound 31] |
| 659 nm | – | 640 nm | 663 nm | 642 nm | CN(CCCC(=O)O)C(=O)c1ccccc1C1=c2cc3c(cc2C(C)(C)c2c1cc1c4c2CCCN4CCC1)=[N+](Cc1ccc(S(=O)(=O)O)cc1S(=O)(=O)O)CCC3 [Compound 41] |

From patent publication US11180657B2, “Polysulfonated fluorescence dyes” (ATTO-TEC GmbH, priority 2017, dated 2021)
